Test results from patent US4396607A, “Muramyl peptide derivatives and pharmaceutical compositions” (priority 1978, dated 1983).

Experiments:
[1] = test system: Klebsiella pneumoniae; assay: Anti-infectious activity with respect to Klebsiella; type: in vivo; settings: mice, i.v. treatment 24h before 2 × 10^4 bacteria i.m.
Experimental: The survival of groups of inoculated mice under the above conditions and treated by means of the products according to the invention was followed.
The infecting dose was 2.10^4 Klebsiella; it was administered by the intramuscular route.
The administration of the tested product was carried out by the intravenous route in 0.2 ml of apyrogenic physiological solution, the controls receiving the solution alone. It was carried out 24 hours before the inoculation.
The percentage protection indicated is a difference of the percentages of survivors of the treated group with respect to the control group.

[2] = test system: bovine serum albumin (BSA); assay: Adjuvant character in the aqueous phase (antibody titer by passive hemagglutination); type: in vivo, Swiss mice; settings: mice, 0.5 mg BSA with 0.1 mg tested substance SC in isotonic saline, booster day 30, titer at the 36th day
Experimental: Groups of 8 Swiss mice aged two months received, by sub-cutaneous injection (SC), 0.5 mg of antigen constituted by bovine serum albumin (BSA) with 0.1 mg or without the tested substance in an isotonic saline solution. This high dose of antigen, because it is situated at the limit of the paralyzing dose with respect to the immunitary response, results, for this reason, in a weak or zero response to the antigen only in the controls: It constitutes therefore a severe criterien to establish the activity of an adjuvant substance. Thirty days later, the mice received, by the same administrative route, a booster containing 0.1 mg of the same antigen.
The antibody level was determined, six days after the booster, by passive hemagglutination using sheep's red blood corpuscles treated with formalin and covered with the antigen studied according to the method described by A. A. HIRATA and M. W. BRANDISS (J. Immunol., 100, 641-648, 1968).
The antibody titer, represented by the maximum serum dilution agglutinating a given amount of sheep corpuscles, reaches a maximum at the 36th day and is established in the following manner: […]

[3] = test system: Ovalbumin; assay: Adjuvant character in emulsion (delayed hypersensitivity and antibodies); type: in vivo, Hartley guinea pigs; settings: guinea pigs, 50 μg in AlF emulsion with 1 mg ovalbumin; for Log2 of the hemagglutinating titer: serum day 21; for HSR (diameter of the delayed hypersensitivity reaction): skin test day 18, read 48 hours later
Experimental: The tests were carried out on batches of 6 male Hartley guinea pigs of 350 g. The administration was done by intradermal injection into the plantar pad of each of the rear paws. Ovalbumin (constituting the antigen) in the amount of 1 mg is prepared in 0.1 ml of an emulsion of saline isotonic solution, in any oily phase constituted either by the Freund imcomplete adjuvant (FIA), or by the complete adjuvant (FCA) formed by the FIA to which is added 0.1 mg of whole Mycobacterium smegmatis cells. The compound according to the invention was administered in the amount of 0.05 mg added in the emulsion containing the FIA.
Eighteen days after this immunization, possible delayed hypersensitivity reactions to the antigen were sought by injecting by the intradermal route 0.01 mg of ovalbumin in the side of the animals, and 48 hours later, the reaction of the point of injection was observed. The diameter in millimeters of the reaction thus caused was measured.
Twenty-one days after the injection, the animals were bled. […]

[4] = Toxicity (lethal dose 50) by parenteral administration in the adrenalectomised mouse; type: in vivo, mice
Experimental: The toxicity of the products according to the invention was investigated by parenteral administration in mice. It was observed that the toxic doses were of an order of magnitude very much higher than that of the doses at which these products manifest their activity. Thus the lethal dose 50 of the products according to the invention tested was higher than 5 mg/kg of animal in the adrenalectomised mouse, whose sensitivity to endotoxins is well-known.

[5] = test system: Limulus amoebocyte lysate; assay: Limulus test (endotoxic type activity); settings: gel formation after 20 minutes at 37° C.
Experimental: For this purpose, 0.1 ml of the Limulus amoebocyte lysate preparation (marketed by the MALLINCKRODT Company, at St. LOUIS, U.S.A.) was mixed with an equal volume of the tested product at various concentrations in solution in apyrogenic distilled water. The vessels used were also made apyrogenic by dry heating in the oven, at 180° C., for 2 hours.
After incubating the mixture for 20 minutes at 37° C. in tubes, the formation of gel characteristics of the presence of endotoxin was estimated.

[6] = test system: Listeria monocytogenes; assay: Anti-infectious activity with respect to Listeria; type: in vivo; settings: mice, i.v., 1 day before infection

In the case of `CCCCCCCCCCOC(=O)CC[C@@H](NC(=O)[C@H](C)NC(=O)[C@@H](C)O[C@H]1[C@H](O)[C@@H](CO)OC(O)[C@@H]1NC(C)=O)C(=O)OC` (stereo partly drawn) [MDPA(decyl--ester)OCH3, α-methyl, γ-decyl N-acetyl-muramyl-L-alanyl-D-glutamic diester], the “% of protection” value ([1]; dose per mouse 100) is reported as 44%, the “Number of survivors at day 3” value ([1]; dose per mouse 100) is reported as 13 and the “Number of survivors at day 5” value ([1]; dose per mouse 100) is reported as 11. The “Number of survivors at day 8” value ([1]; dose per mouse 100) was 10.
With `CC(=O)N[C@H]1C(O)O[C@H](CO)[C@@H](O)[C@@H]1O[C@H](C)C(=O)N[C@@H](C)C(=O)N[C@H](CCC(=O)N[C@@H](C)C(=O)OCc1ccccc1)C(N)=O` (stereo partly drawn) [MDP--L--Ala--benzyl--ester, Benzyl ester of N-acetyl-muramyl-L-alanyl-D-isoglutaminyl-L-alanine] the “% of protection” value ([1]; dose per mouse 100) was 46%, the “Number of survivors at day 3” value ([1]; dose per mouse 100) was 24 and the “Number of survivors at day 5” value ([1]; dose per mouse 100) was 14. For the same molecule, the “Number of survivors at day 8” value ([1]; dose per mouse 100) was 14, the Log2 hemagglutinating titer [2] was 7.47 ± 0.89 and the “Log2 of the hemagglutinating titer” value [3] was 12.31 ± 0.82. For the same molecule, the “HSR (diameter of the delayed hypersensitivity reaction)” value (“HSR” below) [3] was 12.5 ± 3.5 millimeters and the “lethal dose 50” value [4] was “higher than 5 mg/kg”.
With `CCCCCCCCCCOC(=O)[C@H](CCCCN)NC(=O)CC[C@@H](NC(=O)[C@H](C)NC(=O)[C@@H](C)O[C@H]1[C@H](O)[C@@H](CO)OC(O)[C@@H]1NC(C)=O)C(N)=O` (stereo partly drawn) [MDP--L--Lys--decyl--ester, Decyl ester of N-acetyl-muramyl-L-alanyl-D-isoglutaminyl-L-lysine] the “% of protection” value ([1]; dose per mouse 100) was 71%, the “Number of survivors at day 3” value ([1]; dose per mouse 100) was 22 and the “Number of survivors at day 5” value ([1]; dose per mouse 100) was 20. For the same molecule, the “Number of survivors at day 8” value ([1]; dose per mouse 100) was 20, the Log2 hemagglutinating titer [2] was 9.64 ± 0.70 and the “lethal dose 50” value [4] was “higher than 5 mg/kg”.
With `CCCCCCCCCCOC(=O)CC[C@@H](NC(=O)[C@H](C)NC(=O)[C@@H](C)O[C@H]1[C@H](O)[C@@H](CO)OC(O)[C@@H]1NC(C)=O)C(N)=O` (stereo partly drawn) [MDP--decyl--ester, Decyl ester of N-acetyl-muramyl-L-alanyl-D-isoglutamine] the “Number of survivors at day 3” value ([1]; dose per mouse 10) was 1, the “Number of survivors at day 5” value ([1]; dose per mouse 10) was 0 and the “Number of survivors at day 8” value ([1]; dose per mouse 10) was 0. The “% of protection” value ([1]; dose per mouse 100) was 75%, the “Number of survivors at day 3” value ([1]; dose per mouse 100) was 24 and the “Number of survivors at day 5” value ([1]; dose per mouse 100) was 21. For the same molecule, the “Number of survivors at day 8” value ([1]; dose per mouse 100) was 21, the Log2 hemagglutinating titer [2] was 8.64 ± 1.31 and the “lethal dose 50” value [4] was “higher than 5 mg/kg”.
In the case of `CCCCCCCCCCNC(=O)[C@H](C)NC(=O)CC[C@@H](NC(=O)[C@H](C)NC(=O)[C@@H](C)O[C@H]1[C@H](O)[C@@H](CO)OC(O)[C@@H]1NC(C)=O)C(N)=O` (stereo partly drawn) [MDP--L--Ala--decyl--amide, Decylamide of N-acetyl-muramyl-L-alanyl-D-isoglutamine-L-alanine], the “Limulus test result (concentration of the tested product)” value [5] is reported as 100 µg/mL, the “% of protection” value ([1]; dose per mouse 100) is reported as 50% and the “Number of survivors at day 3” value ([1]; dose per mouse 100) is reported as 21. For the same molecule, the “Number of survivors at day 5” value ([1]; dose per mouse 100) was 17, the “Number of survivors at day 8” value ([1]; dose per mouse 100) was 16 and the Log2 hemagglutinating titer [2] was 8.64 ± 0.95. The “lethal dose 50” value [4] was “higher than 5 mg/kg”.
In the case of `CCCCOC(=O)CC[C@@H](NC(=O)[C@H](C)NC(=O)[C@@H](C)O[C@H]1[C@H](O)[C@@H](CO)OC(O)[C@@H]1NC(C)=O)C(=O)OC` (stereo partly drawn) [MDPA(butyl--ester)OCH3, α-methyl, γ-n-butyl N-acetyl-muramyl-L-alanyl-D-glutamic diester], the “% of protection” value ([1]; dose per mouse 100) is reported as 38%, the “Number of survivors at day 3” value ([1]; dose per mouse 100) is reported as 12 and the “Number of survivors at day 5” value ([1]; dose per mouse 100) is reported as 11. The “Number of survivors at day 8” value ([1]; dose per mouse 100) was 9.
With `CCCCCCCCCCCCCCCOC(=O)[C@H](C)NC(=O)CC[C@@H](NC(=O)[C@H](C)NC(=O)[C@@H](C)O[C@H]1[C@H](O)[C@@H](CO)OC(O)[C@@H]1NC(C)=O)C(N)=O` (stereo partly drawn) [MDP--L--Ala--penta--decyl--ester, Pentadecyl ester of N-acetyl-muramyl-L-alanyl-D-isoglutaminyl-L-alanine] the “% of protection” value ([1]; dose per mouse 100) was 50%, the “Number of survivors at day 3” value ([1]; dose per mouse 100) was 24 and the “Number of survivors at day 5” value ([1]; dose per mouse 100) was 16. For the same molecule, the “Number of survivors at day 8” value ([1]; dose per mouse 100) was 15, the Log2 hemagglutinating titer [2] was 8.39 ± 0.89 and the “Log2 of the hemagglutinating titer” value [3] was 10.97 ± 1.04. For the same molecule, the “HSR” value [3] was 5 millimeters.
With `CCCCCCCCCCOC(=O)[C@H](C)NC(=O)CC[C@@H](NC(=O)[C@H](C)NC(=O)[C@@H](C)O[C@H]1[C@H](O)[C@@H](CO)OC(O)[C@@H]1NC(C)=O)C(N)=O` (stereo partly drawn) [MDP--L--Ala--decyl--ester, Decyl ester of N-acetyl-muramyl-L-alanyl-D-isoglutaminyl-L-alanine] the “Limulus test result (concentration of the tested product)” value [5] was 100 µg/mL, the “% of protection” value ([1]; dose per mouse 100) was 44% and the “Number of survivors at day 3” value ([1]; dose per mouse 100) was 30. The “Number of survivors at day 5” value ([1]; dose per mouse 100) was 22, the “Number of survivors at day 8” value ([1]; dose per mouse 100) was 22 and the “% of protection” value ([6]; 10 μg per mouse) was 50%. For the same molecule, the “Number of surviving animals at day 5” value ([6]; 10 μg per mouse) was 7, the “Number of surviving animals at day 10” value ([6]; 10 μg per mouse) was 5 and the “% of protection” value ([6]; 100 μg per mouse) was 38%. For the same molecule, the “Number of surviving animals at day 5” value ([6]; 100 μg per mouse) was 19, the “Number of surviving animals at day 10” value ([6]; 100 μg per mouse) was 11 and the “% of protection” value ([6]; 300 μg per mouse) was 23%. The “Number of surviving animals at day 5” value ([6]; 300 μg per mouse) was 11, the “Number of surviving animals at day 10” value ([6]; 300 μg per mouse) was 5 and the Log2 hemagglutinating titer [2] was 6.23 ± 1.23.
In the case of `CCCCOC(=O)[C@H](C)NC(=O)CC[C@@H](NC(=O)[C@H](C)NC(=O)[C@@H](C)O[C@H]1[C@H](O)[C@@H](CO)OC(O)[C@@H]1NC(C)=O)C(N)=O` (stereo partly drawn) [MDP--L--Ala--butyl--ester, n-butyl ester of N-acetyl-muramyl-L-alanyl-D-isoglutaminyl-L-alanine], the “% of protection” value ([1]; dose per mouse 100) is reported as 54%, the “Number of survivors at day 3” value ([1]; dose per mouse 100) is reported as 23 and the “Number of survivors at day 5” value ([1]; dose per mouse 100) is reported as 18. The “Number of survivors at day 8” value ([1]; dose per mouse 100) was 17, the Log2 hemagglutinating titer [2] was 10.31 ± 0.49 and the “Log2 of the hemagglutinating titer” value [3] was 13.31 ± 0.52. For the same molecule, the “HSR” value [3] was 18 ± 2 millimeters.
